Drawing on PubChem BioAssay AID1963597 (National Center for Advancing Translational Sciences (NCATS), 2024), this text covers half-life for 90 compounds.

Bounds are passed on as bounds.

The subject of the data set is human liver microsomes, metabolic stability half-life. As to the kind of experiment: NCATS Human Liver Microsomal (HLM) Stability Profiling. The conditions noted are these: higher = more stable; screened at 1 µM (by protocol). The method in brief: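 Half-life derived from parent loss over 0–60 min (0, 5, 10, 15, 30, 60 min) at 37 °C. Incubations: 0.5 mg/mL microsomes, 1 µM test article, NADPH regeneration, pH 7.4 phosphate; quenched in acetonitrile containing albendazole, analysed by MS.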
On the technique in general: Liver microsomes are a subcellular fraction often used to study metabolism.

In turn, `C[C@@H]1O[C@@H](OC[C@H]2O[C@@H](Oc3c(-c4ccc(O)c(O)c4)oc4cc(O)cc(O)c4c3=O)[C@H](O)[C@@H](O)[C@@H]2O)[C@H](O)[C@H](O)[C@H]1O` registered a half-life of more than 120 min.
The value for `N#Cc1cccc(CN2CC(COc3ccccc3)C3(C2)CN(c2ccccc2)C3)c1` (stereo not given) was 3.65 min.
Take `COc1ccc2cc(-c3cc(-c4cc(Cl)cc(Cl)c4)nn3C(C)c3ccc(C(=O)NCCC(=O)O)cc3)ccc2c1` (stereo not given): the half-life was more than 120 min.
As for `CCn1c(C(=O)NCc2ccccc2Cl)cc2sc(Cl)cc21`, the figure is 7.52 min.
As for `CN(C)c1ccc2nc3ccc(=[N+](C)C)cc-3sc2c1`, the figure is more than 120 min.
As for `N#Cc1cccc(C(=O)Nc2cc(-c3ccccc3)nn2-c2ccccc2)c1`, the figure is 18.7 min.
`CCc1ccc(C(=O)C(C)CN2CCCCC2)cc1` (stereo not given): the half-life came out at 4.87 min.
As for `COc1ccc2c(CNCCc3ccccc3OC)c(C(=O)O)n(Cc3ccc(F)cc3Cl)c2c1`, the figure is 1.79 min; as for `CCNCc1nc2c(N)nc3ccccc3c2n1CC(C)(C)O`, more than 120 min.
The value for `Cn1c(N2CCCCS2(=O)=O)nc(C(=O)NCc2ccc(F)cc2)c(O)c1=O` was more than 120 min; that for `Cc1cn([C@@H]2O[C@H](CO)[C@@H](O)[C@H]2F)c(=O)[nH]c1=O` was 22.1 min; that for `c1ccc(C2CC2)c(OCC2=NCCN2)c1` was more than 120 min.
The value for `Cc1ccccc1-n1c([C@H](C)Nc2nc(N)nc3nc[nH]c23)nc2cccc(C)c2c1=O` was 103 min; that for `O=C(Nc1ccnc(NC(=O)C2CC2)c1)c1c(Cl)cccc1Cl` was more than 120 min.
On to `N#Cc1c[nH]c2c(C(=O)N3CCN(CCc4ccc(F)cc4)CC3)cccc12`, for which the half-life was found to be 29.8 min.
The value for `O=C(CCCCCn1c(=O)c2sccc2n(CC(=O)Nc2cccc(Cl)c2)c1=O)NCc1ccc2c(c1)OCO2` was 9.36 min.
As for `O=C(N[C@@H](COc1ccc2[nH]c(=O)[nH]c2c1)c1ccccc1)c1cccn(Cc2ccc(F)c(F)c2)c1=O`, the figure is 42.5 min; as for `CCCCCCCCC(=O)NCc1ccc(O)c(OC)c1`, 3.71 min.
As for `CCCCCOC(=O)Nc1nc(=O)n([C@@H]2O[C@H](C)[C@@H](O)[C@H]2O)cc1F`, the figure is more than 120 min; as for `CCOc1ccc(NC(=O)Cn2cc(C(=O)c3cccs3)c3ccccc32)cc1`, 10.5 min; as for `Cc1nn2c(c1-c1ccccc1Oc1ccccc1)N(Cc1cccc(C#N)c1)CCC2`, 0.77 min.
Consider `CC(C)c1nn(-c2c(Cl)cccc2Cl)c2nc(Cc3ccc(OCCO)cc3)[nH]c(=O)c12`, for which the half-life was found to be 32.2 min.
The value for `COc1ccc2c(c1OC)C(=O)O[C@@H]2[C@H]1c2cc3c(cc2CCN1C)OCO3` was 103 min; that for `CC(C)(C)NC[C@H](O)COc1cccc2c1CCCC2=O` was more than 120 min; that for `CCCCCC(=O)O[C@]1(C(C)=O)CC[C@H]2[C@@H]3CCC4=CC(=O)CC[C@]4(C)[C@H]3CC[C@@]21C` was 1.86 min.
The value for `Cc1ccc(-c2ccccc2C#N)cc1` was 1 min; that for `Cc1nc2ccc(CN(C)c3ccc(C(=O)NC(CCC(=O)O)C(=O)O)s3)cc2c(=O)[nH]1` (stereo not given) was more than 120 min; that for `O=c1c(N2CCN(c3cccc(Cl)c3)CC2)csc2ccc(Cl)cc12` was 12.8 min.
As for `Cc1ccc([S+](=O)([O-])NC2CCC(C)(C)CC2)cc1`, the figure is 4.82 min; as for `Clc1ccc(N2CCN(c3ncnc4c3nc3n4CCCC3)CC2)cc1`, 37.9 min; as for `COc1cc2ncnc(Nc3ccc(F)c(Cl)c3)c2cc1NC(=O)C=CCN1CCCCC1`, more than 120 min.
Turning to `O=C(N[C@H]1CCN(C(=O)c2cc(C(F)(F)F)cc(C(F)(F)F)c2)[C@H](Cc2ccc(Cl)cc2)C1)c1ccnc2ccccc12`, the half-life stood at 49.2 min.
The value for `Cc1c(C)n(Cc2ccccc2)c2ccc(C(=O)OCCN(C)C)cc12` was 11.1 min.
As to `NC(=O)N1CCC(CC(=O)N2CCC(C3c4ncc(Br)cc4CCc4cc(Cl)cc(Br)c43)CC2)CC1` (stereo not given), the half-life was determined as 5.45 min.
As for `C=Cc1cc(O)cc2nc(-c3ccc(O)c(F)c3)oc12`, the figure is 5.84 min.
As for `COC(=O)c1ccc2c(C(=Nc3ccc(N(C)C(=O)CN4CCN(C)CC4)cc3)c3ccccc3)c(O)[nH]c2c1`, the figure is 49.1 min.
As for `CCC(=O)N1CCC(n2nccc2NC(=O)Nc2ccccc2Cl)CC1`, the figure is 89.7 min; as for `COc1ccc(CCC(C)=O)cc1`, more than 120 min.
On to `CC(Cc1ccccc1)NCc1ccccc1Cl` (stereo not given), for which the half-life came to 10.6 min.
As for `C/C(=C(/OCCOc1ccc(Cl)cc1)c1ccc(Cl)cc1Cl)n1ccnc1`, the figure is 10.1 min.
As for `CC[C@]1(C2=NCCN2)Cc2ccccc2O1`, the figure is more than 120 min; as for `c1cc(-c2cc(C3CCNCC3)[nH]n2)ccn1`, 72.6 min.
As to `Cc1ccc(C(C)(O)c2nc3ccccc3s2)c(C)c1` (stereo not given), the half-life was 4.22 min.
Turning to `O=C(O)c1ccc(CN2CCOC[C@H]2c2ncc(-c3ccc(F)cc3)[nH]2)cc1`, the half-life is more than 120 min.
As for `COc1ccc(-c2ccc3cc(C(=O)O)ccc3c2)cc1C12CC3CC(CC(C3)C1)C2`, the figure is 46.1 min.
The compound `CC1CCN(C(c2ccc(F)cc2)c2ccc(C(C)C(=O)O)cc2-c2ccc(C(F)(F)F)cc2)CC1` (stereo not given) had a half-life of 115 min.
The value for `Cc1cccc(N2CCN(C(=O)c3cccn3-c3nnc(N4CCCCC4)s3)CC2)c1C` was 3.17 min.
For `COc1ccccc1Cn1cc(C(=O)c2ccc(Cl)cc2)c(=O)c2cc3c(cc21)OCCO3`, the half-life worked out at 40.8 min.
The value for `O=C1c2ccccc2C(=O)c2c(O)c(O)cc(O)c21` was 59.8 min.
The value for `O=C(CCCN1CCC(n2c(=O)[nH]c3ccccc32)CC1)c1ccc(F)cc1` was more than 120 min; that for `COc1cc(N2CCOCC2)ccc1NC(=O)c1csc(-c2cccnc2)n1` was 30.2 min.
The value for `S=C(NCc1ccc2c(c1)OCO2)N1CCN(c2ncnc3c2oc2ccccc23)CC1` was 18.6 min.
`CCN1CC(CCN2CCOCC2)C(c2ccccc2)(c2ccccc2)C1=O` (stereo not given) came in with a half-life of 33.9 min.
The value for `Nc1ccn([C@@H]2O[C@H](CO)[C@H](O)C2(F)F)c(=O)n1` was 22.3 min.
The value for `CCCCOCc1cc(CN2CCN(c3cccc(Cl)c3)CC2)c(O)c2ncccc12` was 10.3 min.
Compound `CC(CN1c2ccccc2Sc2ccccc21)N(C)C` (stereo not given) registered a half-life of 32.3 min.
On to `CCc1cccc(CC)c1NC(=O)N1Cc2[nH]nc(NC(=O)c3ccc(N4CCN(C)CC4)cc3)c2C1`, for which the half-life is more than 120 min.
`Cc1ccc(C(=O)NC2CCN(c3cnn(CC4CC4)c(=O)c3)CC2)cc1C` displayed a half-life of more than 120 min.
As for `COc1cc(Nc2ncc3c(n2)-c2ccc(Cl)cc2C(c2c(F)cccc2OC)=NC3)ccc1C(=O)O`, the figure is more than 120 min; as for `CNC(=O)c1ccc(N2C(=S)N(c3cnc(C#N)c(C(F)(F)F)c3)C(=O)C23CCC3)cc1F`, more than 120 min; as for `Oc1ccc(-c2cnc3ccc(NCc4ccco4)nn23)cc1`, 9.45 min.
The value for `C#C[C@]1(OC(C)=O)CC[C@H]2[C@@H]3CCC4=C/C(=N/O)CC[C@@H]4[C@H]3CC[C@@]21CC` was 6.21 min; that for `COc1ccc2nc([C@H]3CCN(Cc4cccc(C#N)c4)C3)[nH]c2c1` was 12.3 min.
The value for `C=C1CCN([C@H](C)[C@](O)(Cn2cncn2)c2ccc(F)cc2F)CC1` was 10 min; that for `Nc1nc(O)c(C2=C3C(=Nc4ccccc43)C(=O)NCC2)[nH]1` was more than 120 min; that for `Cc1oc(=O)oc1COC(=O)[C@@H]1N2C(=O)[C@@H](NC(=O)[C@H](N)c3ccccc3)[C@H]2SC1(C)C` was 12.2 min.
`Cc1cc(O)c(-c2ccc([C@@H](C)CN(C)C)cc2)c2c1[nH]c(=O)c1sccc12` registered a half-life of 95.3 min.
As for `COc1ccccc1N1CCN(c2csc3ccc(Cl)cc3c2=O)CC1`, the figure is 15.7 min; as for `Cc1cnc(NC(=O)c2cc(S(=O)(=O)N(C)C)ccc2N2CCCC2)s1`, 24.3 min.
The value for `NC1CCC(Nc2cc(-c3cccc(NCc4cccc(F)c4)n3)c(Cl)cn2)CC1` (stereo not given) was more than 120 min; that for `O=C(CCNc1c(-c2ccccc2)nc2cnccn12)N1CCCC1` was 7.99 min.
As for `O=C1COc2nccc(-c3ccccc3F)c2CN1Cc1cc(C(F)(F)F)cc(C(F)(F)F)c1`, the figure is 2.5 min.
Take `CC(C)COC[C@H](CN(Cc1ccccc1)c1ccccc1)N1CCCC1`: the half-life worked out at 21.1 min.
As for `CCOP(=S)(OCC)Oc1cc(Cl)c(Br)cc1Cl`, the figure is 57.6 min; as for `COc1cc(C=O)ccc1O`, 97.1 min; as for `COc1ccc(CCNC(=O)CCc2c(C)c3cc4c(C)coc4cc3oc2=O)cc1`, 5.41 min.
As for `CCN1CCCC1CNC(=O)C(O)(c1ccccc1)c1ccccc1` (stereo not given), the figure is more than 120 min.
The value for `Nc1ccc(S(=O)(=O)Nc2ccccc2)cc1` was more than 120 min; that for `COc1cc2c(Oc3ccc(-c4cnc(Nc5ccc(F)cc5)n(C)c4=O)cc3F)ccnc2cc1OCCCN1CCOCC1` was 30.6 min.
`CCN1C(=O)NC(c2ccccc2)C1=O` (stereo not given): the half-life is more than 120 min.
Consider `CCOc1ccc(NS(=O)(=O)c2ccc(N)cc2)nn1`, for which the half-life was more than 120 min.
As for `CCOc1ccccc1NC(=O)CSc1nc2ccccc2c2nc(CCn3cncc3C)nn12`, the half-life was 5.36 min.
As for `C[C@]12CC[C@H]3[C@@H](CC[C@@]45O[C@H]4C(O)=C(C#N)C[C@]35C)[C@H]1CC[C@H]2O`, the figure is 85 min.
The value for `O=C(CCc1ccccc1)N1CCC(O)(Cn2cnc3cc(Cl)ccc3c2=O)CC1` was 3.16 min; that for `CCN1CCN(C(=O)Cc2cccn2-c2ccc(F)cc2)CC1` was 114 min; that for `CCOc1ccc(-c2cc(NC(=O)Nc3ccccc3Cl)c(C(=O)OC)s2)cc1` was 47.8 min.
As for `CC(Cc1cccc(C(F)(F)F)c1)NCCOC(=O)c1ccccc1` (stereo not given), the figure is 0.84 min.
The compound `C[C@H](N)C(=O)N1CCC(n2nccc2NC(=O)Nc2ccccc2Cl)CC1` gave a half-life of more than 120 min.
The value for `CC(C)(C)c1ccc(CNC(=S)NCc2ccc(NS(C)(=O)=O)c(F)c2)cc1` was 43 min; that for `C#CCN(C)CCCOc1ccc(Cl)cc1Cl` was 3.52 min.

One may read the half-life as how long it takes for the measured level to halve.
